Test results as given in US8563542B2 (Cyclacel Limited, priority 2007, dated 2013).

How the values were obtained:
[1] = target: T1, AA (Homo sapiens, UniProt O14965); assay: AA IC50 (Table 1; no method given); assay type: biochemical; conditions: Table 2, AurA IC50; class symbols; read-out: AurA IC50
T1 sequence (O14965 1-403): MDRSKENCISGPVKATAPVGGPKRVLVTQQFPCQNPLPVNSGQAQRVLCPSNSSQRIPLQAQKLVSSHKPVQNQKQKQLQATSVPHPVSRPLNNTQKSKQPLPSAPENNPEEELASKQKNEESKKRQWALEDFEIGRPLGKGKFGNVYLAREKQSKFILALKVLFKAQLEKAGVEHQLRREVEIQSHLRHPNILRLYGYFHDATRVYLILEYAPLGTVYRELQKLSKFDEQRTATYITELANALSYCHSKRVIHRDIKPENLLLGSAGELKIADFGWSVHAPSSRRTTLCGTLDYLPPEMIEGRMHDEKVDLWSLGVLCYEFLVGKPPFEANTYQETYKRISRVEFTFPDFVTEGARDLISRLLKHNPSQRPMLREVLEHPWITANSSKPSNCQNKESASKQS

[2] = target: PLK1 (Homo sapiens, UniProt P53350); assay: PLK1 protein kinase assay (CDC25C phosphorylation, [γ-32P]-ATP); assay type: biochemical; conditions: Table 2, PLK1 IC50; class symbols; read-out: PLK1 IC50
Chain of PLK1 (P53350 whole entry): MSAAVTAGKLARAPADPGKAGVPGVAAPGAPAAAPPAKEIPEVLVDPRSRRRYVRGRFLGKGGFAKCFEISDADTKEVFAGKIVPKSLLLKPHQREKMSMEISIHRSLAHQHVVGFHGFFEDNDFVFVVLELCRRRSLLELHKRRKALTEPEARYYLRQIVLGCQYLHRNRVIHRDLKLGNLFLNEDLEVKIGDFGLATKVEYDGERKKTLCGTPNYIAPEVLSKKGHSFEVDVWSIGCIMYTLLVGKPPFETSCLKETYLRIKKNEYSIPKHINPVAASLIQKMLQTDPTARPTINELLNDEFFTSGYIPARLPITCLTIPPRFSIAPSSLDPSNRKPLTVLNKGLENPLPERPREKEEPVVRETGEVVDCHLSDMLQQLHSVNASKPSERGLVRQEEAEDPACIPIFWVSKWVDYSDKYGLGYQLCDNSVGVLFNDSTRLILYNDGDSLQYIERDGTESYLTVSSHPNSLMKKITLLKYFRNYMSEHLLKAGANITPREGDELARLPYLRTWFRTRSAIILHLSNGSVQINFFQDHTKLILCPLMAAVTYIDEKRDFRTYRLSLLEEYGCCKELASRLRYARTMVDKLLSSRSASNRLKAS

Row | SMILES | IC50 [1] [µM] | IC50 [2] [µM]
1 | CN1C(=O)CCN(C2CCCC2)c2nc(Nc3ccc(N4CCOCC4)cc3)ncc21 [compound 51, 9-Cyclopentyl-5-methyl-2-(4-morpholin-4-yl-phenylamino)-5,7,8,9-tetrahydro-pyrimido[4,5-b][1,4]diazepin-6-one] | < 1 | < 1
2 | CN1C(=O)CCN(C2CCCC2)c2nc(Nc3cccc(S(N)(=O)=O)c3)ncc21 [compound 53, 3-(9-Cyclopentyl-5-methyl-6-oxo-6,7,8,9-tetrahydro-5H-pyrimido[4,5-b][1,4]diazepin-2-ylamino)-benzenesulfonamide] | < 1 | < 1
3 | CN1C(=O)CCN(C2CCCC2)c2nc(Nc3cccc(C(=O)O)c3)ncc21 [compound 56, 3-(9-Cyclopentyl-5-methyl-6-oxo-6,7,8,9-tetrahydro-5H-pyrimido[4,5-b][1,4]diazepin-2-ylamino)-benzoic acid] | < 1 | < 1
4 | CN1CCC(NC(=O)c2cccc(Nc3ncc4c(n3)N(C3CCCC3)CCC(=O)N4C)c2)CC1 [compound 57, 3-(9-Cyclopentyl-5-methyl-6-oxo-6,7,8,9-tetrahydro-5H-pyrimido[4,5-b][1,4]diazepin-2-ylamino)-N-(1-methyl-piperidin-4-yl)-benzamide] | < 1 | < 10
5 | CN1CCC(NS(=O)(=O)c2ccc(Nc3ncc4c(n3)N(C3CCCC3)CCC(=O)N4C)cc2)CC1 [compound 61, 4-(9-Cyclopentyl-5-methyl-6-oxo-6,7,8,9-tetrahydro-5H-pyrimido[4,5-b][1,4]diazepin-2-ylamino)-N-(1-methyl-piperidin-4-yl)-benzenesulfonamide] | < 1 | < 10
6 | CN1C(=O)CCN(C2CCCC2)c2nc(Nc3ccccc3)ncc21 [compound 70, 9-Cyclopentyl-5-methyl-2-phenylamino-5,7,8,9-tetrahydro-pyrimido[4,5-b][1,4]diazepin-6-one] | < 1 | < 10
7 | CN1C(=O)C(C)(C)CN(C2CCCC2)c2nc(Nc3ccc4c(c3)CS(=O)(=O)C4)ncc21 [compound 77, 9-Cyclopentyl-2-(2,2-dioxo-2,3-dihydro-1H-2lambda*6*-benzo[c]thiophen-5-ylamino)-5,7,7-trimethyl-5,7,8,9-tetrahydro-pyrimido[4,5-b][1,4]diazepin-6-one] | < 1 | < 1
8 | CN1C(=O)C2(CC2)CN(C2CCCC2)c2nc(Nc3ccc(C(=O)O)cc3)ncc21 [compound 84, 4-(9-Cyclopentyl-5-methyl-6-oxo-6,7,8,9-tetrahydro-5H-spiro[pyrimido[4,5-b][1,4]diazepin-3,1′-cyclopropane]-2-ylamino)-benzoic acid] | < 10 | < 1
9 | CNC(=O)c1ccc(Nc2ncc3c(n2)N(C2CCCC2)CCC(=O)N3C)c(OC)c1 [compound 87, 4-(9-Cyclopentyl-5-methyl-6-oxo-6,7,8,9-tetrahydro-5H-pyrimido[4,5-b][1,4]diazepin-2-ylamino)-3-methoxy-N-methyl-benzamide] | < 10 | < 0.1
10 | COc1cc(C(=O)N(C)C)ccc1Nc1ncc2c(n1)N(C1CCCC1)CCC(=O)N2C [compound 88, 4-(9-Cyclopentyl-5-methyl-6-oxo-6,7,8,9-tetrahydro-5H-pyrimido[4,5-b][1,4]diazepin-2-ylamino)-3-methoxy-N,N-dimethyl-benzamide] | < 10 | < 1
11 | COc1cc(C(N)=O)ccc1Nc1ncc2c(n1)N(C1CCCC1)CCC(=O)N2C [compound 89, 4-(9-Cyclopentyl-5-methyl-6-oxo-6,7,8,9-tetrahydro-5H-pyrimido[4,5-b][1,4]diazepin-2-ylamino)-3-methoxy-benzamide] | < 10 | < 0.1
12 | CC(=O)NCc1cccc(Nc2ncc3c(n2)N(C2CCCC2)CCC(=O)N3C)c1 [compound 90, N-[3-(9-Cyclopentyl-5-methyl-6-oxo-6,7,8,9-tetrahydro-5H-pyrimido[4,5-b][1,4]diazepin-2-ylamino)-benzyl]-acetamide] | < 1 | < 10
13 | CN1C(=O)CCN(C2CCCC2)c2nc(Nc3cccc(CN)c3)ncc21 [compound 91, 2-(3-Aminomethyl-phenylamino)-9-cyclopentyl-5-methyl-5,7,8,9-tetrahydro-pyrimido[4,5-b][1,4]diazepin-6-one] | < 1 | < 10
14 | CC(=O)N(C)S(=O)(=O)c1ccc(Nc2ncc3c(n2)N(C2CCCC2)CCC(=O)N3C)cc1 [compound 97, N-Acetyl-4-(9-cyclopentyl-5-methyl-6-oxo-6,7,8,9-tetrahydro-5H-pyrimido[4,5-b][1,4]diazepin-2-ylamino)-N-methyl-benzenesulfonamide] | < 0.1 | < 10
15 | CN1CCC(NS(=O)(=O)c2cccc(Nc3ncc4c(n3)N(C3CCCC3)CCC(=O)N4C)c2)CC1 [compound 103, 3-(9-Cyclopentyl-5-methyl-6-oxo-6,7,8,9-tetrahydro-5H-pyrimido[4,5-b][1,4]diazepin-2-ylamino)-N-(1-methyl-piperidin-4-yl)-benzenesulfonamide] | < 1 | < 10

Second part, the compound after the results:

Row | IC50 [1] [µM] | IC50 [2] [µM] | SMILES
16 | < 0.1 | < 10 | CN1C(=O)CCN(c2ccccc2F)c2nc(Nc3ccc(C(=O)O)cc3)ncc21 [compound 50, 4-[9-(2-Fluoro-phenyl)-5-methyl-6-oxo-6,7,8,9-tetrahydro-5H-pyrimido[4,5-b][1,4]diazepin-2-ylamino]-benzoic acid]
17 | < 0.1 | < 0.1 | CN1C(=O)CCN(C2CCCC2)c2nc(Nc3ccc(C(=O)O)cc3)ncc21 [compound 54, 4-(9-Cyclopentyl-5-methyl-6-oxo-6,7,8,9-tetrahydro-5H-pyrimido[4,5-b][1,4]diazepin-2-ylamino)-benzoic acid]
18 | < 0.1 | < 10 | CN1C(=O)CCN(C2CCCC2)c2nc(Nc3ccc(S(C)(=O)=O)cc3)ncc21 [compound 55, 9-Cyclopentyl-2-(4-methanesulfonyl-phenylamino)-5-methyl-5,7,8,9-tetrahydro-pyrimido[4,5-b][1,4]diazepin-6-one]
19 | < 0.1 | < 1 | COc1cc(Nc2ncc3c(n2)N(C2CCCC2)CCC(=O)N3C)ccc1C(=O)NC1CCN(C)CC1 [compound 58, 4-(9-Cyclopentyl-5-methyl-6-oxo-6,7,8,9-tetrahydro-5H-pyrimido[4,5-b][1,4]diazepin-2-ylamino)-2-methoxy-N-(1-methyl-piperidin-4-yl)-benzamide]
20 | < 0.1 | < 10 | CN1C(=O)CCN(C2CCCC2)c2nc(Nc3ccc(S(N)(=O)=O)cc3)ncc21 [compound 63, 4-(9-Cyclopentyl-5-methyl-6-oxo-6,7,8,9-tetrahydro-5H-pyrimido[4,5-b][1,4]diazepin-2-ylamino)-benzenesulfonamide]
21 | < 0.1 | < 1 | CCC1CN(C2CCCC2)c2nc(Nc3ccc4c(c3)CS(=O)(=O)C4)ncc2N(C)C1=O (centres unmarked) [compound 74, 9-Cyclopentyl-2-(2,2-dioxo-2,3-dihydro-1H-2lambda*6*-benzo[c]thiophen-5-ylamino)-7-ethyl-5-methyl-5,7,8,9-tetrahydro-pyrimido[4,5-b][1,4]diazepin-6-one]
22 | < 0.1 | < 1 | CC1CN(C2CCCC2)c2nc(Nc3ccc4c(c3)CS(=O)(=O)C4)ncc2N(C)C1=O (centres unmarked) [compound 76, 9-Cyclopentyl-2-(2,2-dioxo-2,3-dihydro-1H-2lambda*6*-benzo[c]thiophen-5-ylamino)-5,7-dimethyl-5,7,8,9-tetrahydro-pyrimido[4,5-b][1,4]diazepin-6-one]
23 | < 0.1 | < 1 | CN1C(=O)C2(CC2)CN(C2CCCC2)c2nc(Nc3ccc4c(c3)CS(=O)(=O)C4)ncc21 [compound 78, (9-Cyclopentyl-2-(2,2-dioxo-2,3-dihydro-1H-2lambda*6*-benzo[c]thiophen-5-ylamino)5-methyl-6-oxo-6,7,8,9-tetrahydro-5H-spiro[pyrimido[4,5-b][1,4]diazepin-3,1′-cyclopropane]]
24 | < 0.1 | < 1 | CN1C(=O)CCN(C2CCCC2)c2nc(Nc3ccc(C(N)=O)cc3)ncc21 [compound 83, 4-(9-Cyclopentyl-5-methyl-6-oxo-6,7,8,9-tetrahydro-5H-pyrimido[4,5-b][1,4]diazepin-2-ylamino)-benzamide]
25 | < 0.1 | < 10 | CN(C)C(=O)c1ccc(Nc2ncc3c(n2)N(C2CCCC2)CCC(=O)N3C)cc1 [compound 85, 4-(9-Cyclopentyl-5-methyl-6-oxo-6,7,8,9-tetrahydro-5H-pyrimido[4,5-b][1,4]diazepin-2-ylamino)-N,N-dimethyl-benzamide]
26 | < 0.1 | < 10 | CC(=O)NCc1ccc(Nc2ncc3c(n2)N(C2CCCC2)CCC(=O)N3C)cc1 [compound 86, N-[4-(9-Cyclopentyl-5-methyl-6-oxo-6,7,8,9-tetrahydro-5H-pyrimido[4,5-b][1,4]diazepin-2-ylamino)-benzyl]-acetamide]
27 | < 0.1 | < 10 | CN1C(=O)CCN(C2CCCC2)c2nc(Nc3ccc(S(=O)(=O)NCc4ccccc4)cc3)ncc21 [compound 93, N-Benzyl-4-(9-cyclopentyl-5-methyl-6-oxo-6,7,8,9-tetrahydro-5H-pyrimido[4,5-b][1,4]diazepin-2-ylamino)-benzenesulfonamide]
28 | < 0.1 | < 10 | CNS(=O)(=O)c1ccc(Nc2ncc3c(n2)N(C2CCCC2)CCC(=O)N3C)cc1 [compound 96, 4-(9-Cyclopentyl-5-methyl-6-oxo-6,7,8,9-tetrahydro-5H-pyrimido[4,5-b][1,4]diazepin-2-ylamino)-N-methyl-benzenesulfonamide]
